Data published in patent US6525001B1, “Substituted pyrimidine and pyridine herbicides” (Mid-American Commercialization Corporation, priority 1997, dated 2003).

Assays:
Assay type in all cases: in vivo
Set-up in all cases: key: 0 is no effect; 10 is complete control
[1] = system: bamyardgrass (Echinochloa crus-galli); assay: Test B flood test
How it was run: (§1)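 Read-out is a visual response score from 0 (no effect) to 10 (complete control), assigned by comparison with untreated controls. Treatment was applied at the 2-leaf stage, and plants stayed in the greenhouse for twelve to sixteen days before scoring.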

[2] = system: duck salad (Heteranthera limosa); assay: Test B flood test
How it was run: as §1

[3] = system: smallflower flatsedge (Cyperus difformis); assay: Test B flood test
How it was run: as §1

rice (Oryza sativa) = assay: Test B flood test
How it was run: as §1

[4] = system: wheat (Triticum aestivum); assay: Test B pre-/postemergence
How it was run: (§2)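 Compounds in a surfactant-containing, non-phytotoxic solvent blend are applied to freshly planted seed (preemergence) and, concurrently, to seedlings of 2 to 18 cm at 1–4 leaves (postemergence). Plants stay in the greenhouse twelve to sixteen days and are then scored visually from 0 (no effect) to 10 (complete control).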

[5] = system: cocklebur (Xanthium strumarium); assay: Test B pre-/postemergence
How it was run: as §2

[6] = system: giant foxtail (Setaria faberii); assay: Test B pre-/postemergence
How it was run: as §2

[7] = system: broadleaf signalgrass (Brachiaria decumbens); assay: Test B pre-/postemergence
How it was run: as §2

[8] = system: purple nutsedge (Cyperus rotundus); assay: Test B pre-/postemergence; settings: Rate 62 g/ha
How it was run: as §2

soybean (Glycine max) = assay: Test B pre-/postemergence
How it was run: as §2

[9] = system: momingglory (Ipomoea hederacea); assay: Test B pre-/postemergence
How it was run: as §2

corn (Zea mays) = assay: Test B pre-/postemergence
How it was run: as §2

[10] = system: blackgrass (Alopecurus myosuroides); assay: Test B pre-/postemergence
How it was run: as §2

[11] = system: crabgrass (Digitaria sanguinalis); assay: Test B pre-/postemergence
How it was run: as §2

wild oat (Avena fatua) = assay: Test B pre-/postemergence
How it was run: as §2

[12] = system: sugar beet (Beta vulgaris); assay: Test B pre-/postemergence
How it was run: as §2

[13] = system: velvetleaf (Abutilon theophrasti); assay: Test B pre-/postemergence
How it was run: as §2

[14] = system: pigweed (Amaranthus retroflexus); assay: Test B pre-/postemergence
How it was run: as §2

[15] = system: bedstraw (Galium aparine); assay: Test B pre-/postemergence; settings: Postemergence
How it was run: as §2

rape (Brassica napus) = assay: Test B pre-/postemergence
How it was run: as §2

[16] = Rate 62 g/ha, Postemergence (flood test)
[17] = Rate 125 g/ha, Postemergence section (flood test species)
[18] = Rate 250 g/ha, Postemergence (flood test species)
[19] = Preemergence, Rate 62 g/ha, scale of 0 to 10

O=C(c1cccc(C(F)(F)F)c1)c1ccnc(-c2ccc(C(F)(F)F)cc2)n1 [Compound 77]
Barnyardgrass plant response rating [1, 16]: 0 | Barnyardgrass plant response rating [1, 17]: 0 | Plant response rating, Barnyardgrass [1, 18]: 0 | Ducksalad plant response rating [2, 16]: 0 | Ducksalad plant response rating [2, 17]: 0 | Plant response rating, Ducksalad [2, 18]: 0 | S. Flatsedge plant response rating [3, 16]: 0 | S. Flatsedge plant response rating [3, 17]: 0 | Plant response rating, S. Flatsedge [3, 18]: 0 | Rice plant response rating (rice (Oryza sativa); [16]): 0 | Rice plant response rating (rice (Oryza sativa); [17]): 0 | Plant response rating, Rice (rice (Oryza sativa); [18]): 0 | Plant response rating, Wheat [4, 19]: 0 | Wheat plant response rating ([4]; Rate 62 g/ha, Postemergence): 0 | Wheat plant response rating ([4]; Rate 125 g/ha, Postemergence): 0 | Plant response rating, Wheat ([4]; Rate 125 g/ha, Preemergence): 0 | Plant response rating, Wheat ([4]; Rate 250 g/ha, Postemergence): 0 | Plant response rating, Wheat ([4]; Rate 250 g/ha, Preemergence): 0 | Plant response rating, Cocklebur [5, 19]: 0 | Cocklebur plant response rating ([5]; Rate 62 g/ha, Postemergence): 1 | Cocklebur plant response rating ([5]; Rate 125 g/ha, Postemergence): 3 | Plant response rating, Cocklebur ([5]; Rate 125 g/ha, Preemergence): 0 | Plant response rating, Cocklebur ([5]; Rate 250 g/ha, Postemergence): 3 | Plant response rating, Cocklebur ([5]; Rate 250 g/ha, Preemergence): 0 | Plant response rating, Giant foxtail [6, 19]: 0 | Giant foxtail plant response rating ([6]; Rate 62 g/ha, Postemergence): 0 | Giant foxtail plant response rating ([6]; Rate 125 g/ha, Postemergence): 1 | Plant response rating, Giant foxtail ([6]; Rate 125 g/ha, Preemergence): 0 | Plant response rating, Giant foxtail ([6]; Rate 250 g/ha, Postemergence): 1 | Plant response rating, Giant foxtail ([6]; Rate 250 g/ha, Preemergence): 1 | B. signalgrass plant response rating ([7]; Rate 62 g/ha, Postemergence): 0 | B. signalgrass plant response rating ([7]; Rate 62 g/ha, Preemergence): 0 | B. signalgrass plant response rating ([7]; Rate 125 g/ha, Postemergence): 0 | Plant response rating, B. signalgrass ([7]; Rate 125 g/ha, Preemergence): 0 | Plant response rating, B. signalgrass ([7]; Rate 250 g/ha, Postemergence): 1 | Plant response rating, B. signalgrass ([7]; Rate 250 g/ha, Preemergence): 0 | Plant response rating, Nutsedge ([8]; Preemergence, scale of 0 to 10): 0 | Nutsedge plant response rating ([8]; Postemergence): 0 | Plant response rating, Soybean (soybean (Glycine max); [19]): 0 | Soybean plant response rating (soybean (Glycine max); Rate 62 g/ha, Postemergence): 0 | Soybean plant response rating (soybean (Glycine max); Rate 125 g/ha, Postemergence): 1 | Plant response rating, Soybean (soybean (Glycine max); Rate 125 g/ha, Preemergence): 0 | Plant response rating, Soybean (soybean (Glycine max); Rate 250 g/ha, Postemergence): 1 | Plant response rating, Soybean (soybean (Glycine max); Rate 250 g/ha, Preemergence): 0 | Plant response rating, Morningglory [9, 19]: 0 | Morningglory plant response rating ([9]; Rate 62 g/ha, Postemergence): 2 | Morningglory plant response rating ([9]; Rate 125 g/ha, Postemergence): 4 | Plant response rating, Morningglory ([9]; Rate 125 g/ha, Preemergence): 0 | Plant response rating, Morningglory ([9]; Rate 250 g/ha, Postemergence): 4 | Plant response rating, Morningglory ([9]; Rate 250 g/ha, Preemergence): 1 | Plant response rating, Corn (corn (Zea mays); [19]): 0 | Corn plant response rating (corn (Zea mays); Rate 62 g/ha, Postemergence): 1 | Corn plant response rating (corn (Zea mays); Rate 125 g/ha, Postemergence): 1 | Plant response rating, Corn (corn (Zea mays); Rate 125 g/ha, Preemergence): 0 | Plant response rating, Corn (corn (Zea mays); Rate 250 g/ha, Postemergence): 1 | Plant response rating, Corn (corn (Zea mays); Rate 250 g/ha, Preemergence): 0 | Plant response rating, Blackgrass [10, 19]: 0 | Blackgrass plant response rating ([10]; Rate 62 g/ha, Postemergence): 0 | Blackgrass plant response rating ([10]; Rate 125 g/ha, Postemergence): 0 | Plant response rating, Blackgrass ([10]; Rate 125 g/ha, Preemergence): 0 | Plant response rating, Blackgrass ([10]; Rate 250 g/ha, Postemergence): 2 | Plant response rating, Blackgrass ([10]; Rate 250 g/ha, Preemergence): 0 | Plant response rating, Crabgrass [11, 19]: 0 | Crabgrass plant response rating ([11]; Rate 62 g/ha, Postemergence): 0 | Crabgrass plant response rating ([11]; Rate 125 g/ha, Postemergence): 2 | Plant response rating, Crabgrass ([11]; Rate 125 g/ha, Preemergence): 0 | Plant response rating, Crabgrass ([11]; Rate 250 g/ha, Postemergence): 2 | Plant response rating, Crabgrass ([11]; Rate 250 g/ha, Preemergence): 1 | Plant response rating, Wild oats (wild oat (Avena fatua); [19]): 0 | Wild oats plant response rating (wild oat (Avena fatua); Rate 62 g/ha, Postemergence): 0 | Wild oats plant response rating (wild oat (Avena fatua); Rate 125 g/ha, Postemergence): 0 | Plant response rating, Wild oats (wild oat (Avena fatua); Rate 125 g/ha, Preemergence): 0 | Plant response rating, Wild oats (wild oat (Avena fatua); Rate 250 g/ha, Postemergence): 1 | Plant response rating, Wild oats (wild oat (Avena fatua); Rate 250 g/ha, Preemergence): 0 | Plant response rating, Sugarbeets [12, 19]: 0 | Sugarbeets plant response rating ([12]; Rate 62 g/ha, Postemergence): 1 | Sugarbeets plant response rating ([12]; Rate 125 g/ha, Postemergence): 1 | Plant response rating, Sugarbeets ([12]; Rate 125 g/ha, Preemergence): 0 | Plant response rating, Sugarbeets ([12]; Rate 250 g/ha, Postemergence): 3 | Plant response rating, Sugarbeets ([12]; Rate 250 g/ha, Preemergence): 0 | Plant response rating, Velvetleaf [13, 19]: 0 | Velvetleaf plant response rating ([13]; Rate 62 g/ha, Postemergence): 1 | Velvetleaf plant response rating ([13]; Rate 125 g/ha, Postemergence): 1 | Plant response rating, Velvetleaf ([13]; Rate 125 g/ha, Preemergence): 0 | Plant response rating, Velvetleaf ([13]; Rate 250 g/ha, Postemergence): 1 | Plant response rating, Velvetleaf ([13]; Rate 250 g/ha, Preemergence): 3 | Plant response rating, Redroot pigweed [14, 19]: 0 | Redroot pigweed plant response rating ([14]; Rate 62 g/ha, Postemergence): 2 | Redroot pigweed plant response rating ([14]; Rate 125 g/ha, Postemergence): 2 | Plant response rating, Redroot pigweed ([14]; Rate 125 g/ha, Preemergence): 0 | Plant response rating, Redroot pigweed ([14]; Rate 250 g/ha, Postemergence): 3 | Plant response rating, Redroot pigweed ([14]; Rate 250 g/ha, Preemergence): 0 | Bedstraw plant response rating ([15]; Rate 62 g/ha): 1 | Bedstraw plant response rating ([15]; Rate 125 g/ha): 1 | Plant response rating, Bedstraw ([15]; Rate 250 g/ha): 4 | Plant response rating, Rape (rape (Brassica napus); [19]): 0 | Rape plant response rating (rape (Brassica napus); Rate 62 g/ha, Postemergence): 1 | Rape plant response rating (rape (Brassica napus); Rate 125 g/ha, Postemergence): 1 | Plant response rating, Rape (rape (Brassica napus); Rate 125 g/ha, Preemergence): 0 | Plant response rating, Rape (rape (Brassica napus); Rate 250 g/ha, Postemergence): 2 | Plant response rating, Rape (rape (Brassica napus); Rate 250 g/ha, Preemergence): 0
